Structures are written as SMILES.

In ChEMBL document CHEMBL3351757, “Design and synthesis of novel and highly-active pan-histone deacetylase (pan-HDAC) inhibitors” (Bioorg Med Chem, 2014) one finds IC50 and inhibition data, which are given here for 15 compounds.

One assay deals with Histone deacetylase 1 (Homo sapiens, UniProt Q13547). The experiment in a line: Inhibition of human HDAC1 pre-incubated for 30 mins before substrate addition and measured after 30 mins by HDAC-Glo I/II assay.
The next assay addresses Histone deacetylase 2 (Homo sapiens, UniProt Q92769). The experiment in a line: Inhibition of human HDAC2 pre-incubated for 30 mins before substrate addition and measured after 30 mins by HDAC-Glo I/II assay.
The next assay has as its target Histone deacetylase 3 (Homo sapiens, UniProt O15379). The experiment in a line: Inhibition of human HDAC3 pre-incubated for 30 mins before substrate addition and measured after 30 mins by HDAC-Glo I/II assay.
In the next assay the target is T1, Histone deacetylase 8 (Homo sapiens, UniProt Q9BY41).
T1 sequence (Q9BY41 whole entry): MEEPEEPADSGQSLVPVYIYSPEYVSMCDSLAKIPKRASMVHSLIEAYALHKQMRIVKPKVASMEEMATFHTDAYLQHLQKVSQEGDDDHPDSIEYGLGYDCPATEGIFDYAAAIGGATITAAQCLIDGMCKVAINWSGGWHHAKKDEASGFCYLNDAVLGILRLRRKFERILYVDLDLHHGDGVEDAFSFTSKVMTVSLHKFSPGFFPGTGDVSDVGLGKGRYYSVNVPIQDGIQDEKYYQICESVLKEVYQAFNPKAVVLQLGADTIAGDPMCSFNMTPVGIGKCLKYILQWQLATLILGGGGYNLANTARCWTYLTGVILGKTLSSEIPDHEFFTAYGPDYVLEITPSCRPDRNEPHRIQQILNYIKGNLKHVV
The experiment in a line: Inhibition of human HDAC8 pre-incubated for 30 mins before substrate addition and measured after 30 mins by HDAC-Glo I/II assay.

The next assay concerns the target Histone deacetylase 4 (Homo sapiens, UniProt P56524). The experiment in a line: Inhibition of human HDAC4 pre-incubated for 30 mins before substrate addition and measured after 30 mins by HDAC-Glo I/II assay.
For the next assay, the target named is Histone deacetylase 9 (Homo sapiens, UniProt Q9UKV0). The assay can be described thus: Inhibition of human HDAC9 pre-incubated for 30 mins before substrate addition and measured after 30 mins by HDAC-Glo I/II assay.
Histone deacetylase 9, sequence (Q9UKV0 whole entry): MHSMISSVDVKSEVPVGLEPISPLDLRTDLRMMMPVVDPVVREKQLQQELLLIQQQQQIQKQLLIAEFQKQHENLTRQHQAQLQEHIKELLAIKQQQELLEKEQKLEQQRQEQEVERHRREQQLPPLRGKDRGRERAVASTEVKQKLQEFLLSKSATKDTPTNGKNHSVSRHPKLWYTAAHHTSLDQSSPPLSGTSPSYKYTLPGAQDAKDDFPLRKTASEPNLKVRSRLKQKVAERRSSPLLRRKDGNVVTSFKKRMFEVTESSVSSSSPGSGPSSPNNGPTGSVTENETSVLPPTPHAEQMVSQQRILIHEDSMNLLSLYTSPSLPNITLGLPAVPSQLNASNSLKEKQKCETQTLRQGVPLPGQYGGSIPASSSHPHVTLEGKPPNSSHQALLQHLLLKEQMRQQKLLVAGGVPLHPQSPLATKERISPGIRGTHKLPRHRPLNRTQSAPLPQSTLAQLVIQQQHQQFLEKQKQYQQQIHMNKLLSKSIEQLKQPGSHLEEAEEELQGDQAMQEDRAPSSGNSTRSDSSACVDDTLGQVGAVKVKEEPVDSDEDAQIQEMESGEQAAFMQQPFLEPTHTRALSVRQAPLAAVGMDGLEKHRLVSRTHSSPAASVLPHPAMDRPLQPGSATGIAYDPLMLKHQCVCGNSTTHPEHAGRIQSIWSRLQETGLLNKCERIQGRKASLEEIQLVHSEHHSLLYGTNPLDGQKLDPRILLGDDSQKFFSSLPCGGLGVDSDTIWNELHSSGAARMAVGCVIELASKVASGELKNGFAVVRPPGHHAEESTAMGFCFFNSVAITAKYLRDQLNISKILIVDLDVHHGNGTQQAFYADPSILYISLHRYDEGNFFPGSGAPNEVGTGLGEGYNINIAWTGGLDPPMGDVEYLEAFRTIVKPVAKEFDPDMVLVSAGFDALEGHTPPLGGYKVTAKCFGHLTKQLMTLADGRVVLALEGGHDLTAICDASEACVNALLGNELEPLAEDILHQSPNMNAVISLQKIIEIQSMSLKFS
Assay [1] has as its target T2, Protein deacetylase HDAC6 (Homo sapiens, UniProt Q9UBN7).
T2 sequence (Q9UBN7 whole entry): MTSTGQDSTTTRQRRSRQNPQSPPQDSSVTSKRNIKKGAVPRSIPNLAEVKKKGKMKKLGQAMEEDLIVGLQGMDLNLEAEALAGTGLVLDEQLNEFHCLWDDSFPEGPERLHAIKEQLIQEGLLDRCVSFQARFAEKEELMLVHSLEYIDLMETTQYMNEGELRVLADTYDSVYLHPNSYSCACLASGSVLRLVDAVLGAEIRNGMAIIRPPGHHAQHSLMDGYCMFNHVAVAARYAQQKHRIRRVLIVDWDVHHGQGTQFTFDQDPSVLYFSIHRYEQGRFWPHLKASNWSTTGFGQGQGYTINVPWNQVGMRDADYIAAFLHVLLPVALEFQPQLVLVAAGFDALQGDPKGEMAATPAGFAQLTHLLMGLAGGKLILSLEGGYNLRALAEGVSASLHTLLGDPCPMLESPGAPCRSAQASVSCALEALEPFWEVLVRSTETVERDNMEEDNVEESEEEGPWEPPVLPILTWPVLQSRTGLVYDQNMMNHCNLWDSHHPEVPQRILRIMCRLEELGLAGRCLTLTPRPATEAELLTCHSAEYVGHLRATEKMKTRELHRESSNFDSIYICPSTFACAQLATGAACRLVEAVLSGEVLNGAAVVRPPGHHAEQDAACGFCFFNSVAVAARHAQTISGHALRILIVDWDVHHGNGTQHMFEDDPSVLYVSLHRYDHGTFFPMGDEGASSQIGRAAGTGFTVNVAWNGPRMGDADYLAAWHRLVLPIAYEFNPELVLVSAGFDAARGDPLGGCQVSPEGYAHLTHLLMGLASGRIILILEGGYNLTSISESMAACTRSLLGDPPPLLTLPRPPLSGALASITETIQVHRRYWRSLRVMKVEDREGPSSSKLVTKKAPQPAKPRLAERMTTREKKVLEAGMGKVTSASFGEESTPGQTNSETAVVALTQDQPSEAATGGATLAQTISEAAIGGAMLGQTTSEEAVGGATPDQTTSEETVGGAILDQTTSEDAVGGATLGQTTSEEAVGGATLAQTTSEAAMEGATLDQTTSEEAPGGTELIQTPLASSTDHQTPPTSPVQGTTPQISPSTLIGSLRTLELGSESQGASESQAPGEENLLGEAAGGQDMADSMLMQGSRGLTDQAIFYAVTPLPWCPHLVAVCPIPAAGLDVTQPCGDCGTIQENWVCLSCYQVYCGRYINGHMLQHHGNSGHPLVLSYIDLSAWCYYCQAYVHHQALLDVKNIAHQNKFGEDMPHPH
The assay can be described thus: Inhibition of human HDAC6 pre-incubated for 30 mins before substrate addition and measured after 30 mins by HDAC-Glo I/II assay.

The target in assay [2] is T3, Histone deacetylase (Rattus norvegicus) (UniProt Q6P6W3+Q99P99+Q99P96+Q4QQW4+Q99P97+Q5RJZ2+B1WBY8). As to conditions: at 10 µM.
Description: Inhibition of rat liver HDAC at 10 uM pre-incubated for 15 mins before Boc-Lys(Ac)-AMC substrate addition and measured after 30 mins by fluorometry
For assay [3], the target named is T3, Histone deacetylase (Rattus norvegicus). Conditions: at 0.1 µM.
Description: Inhibition of rat liver HDAC at 0.1 uM pre-incubated for 15 mins before Boc-Lys(Ac)-AMC substrate addition and measured after 30 mins by fluorometry

Histone deacetylase 2, sequence (Q92769 whole entry): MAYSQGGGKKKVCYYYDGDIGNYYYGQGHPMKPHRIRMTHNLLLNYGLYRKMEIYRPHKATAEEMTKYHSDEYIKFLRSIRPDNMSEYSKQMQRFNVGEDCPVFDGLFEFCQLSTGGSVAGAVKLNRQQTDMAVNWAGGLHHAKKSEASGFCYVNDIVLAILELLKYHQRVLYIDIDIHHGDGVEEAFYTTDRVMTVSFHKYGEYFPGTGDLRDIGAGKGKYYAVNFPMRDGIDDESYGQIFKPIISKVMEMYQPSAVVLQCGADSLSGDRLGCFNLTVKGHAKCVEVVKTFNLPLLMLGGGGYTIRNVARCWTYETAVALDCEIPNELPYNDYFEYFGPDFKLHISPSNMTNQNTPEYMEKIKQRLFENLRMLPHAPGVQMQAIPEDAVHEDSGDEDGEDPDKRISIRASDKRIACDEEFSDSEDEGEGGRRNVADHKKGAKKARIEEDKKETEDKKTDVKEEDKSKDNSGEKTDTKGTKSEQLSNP
Histone deacetylase 4, sequence (P56524 whole entry): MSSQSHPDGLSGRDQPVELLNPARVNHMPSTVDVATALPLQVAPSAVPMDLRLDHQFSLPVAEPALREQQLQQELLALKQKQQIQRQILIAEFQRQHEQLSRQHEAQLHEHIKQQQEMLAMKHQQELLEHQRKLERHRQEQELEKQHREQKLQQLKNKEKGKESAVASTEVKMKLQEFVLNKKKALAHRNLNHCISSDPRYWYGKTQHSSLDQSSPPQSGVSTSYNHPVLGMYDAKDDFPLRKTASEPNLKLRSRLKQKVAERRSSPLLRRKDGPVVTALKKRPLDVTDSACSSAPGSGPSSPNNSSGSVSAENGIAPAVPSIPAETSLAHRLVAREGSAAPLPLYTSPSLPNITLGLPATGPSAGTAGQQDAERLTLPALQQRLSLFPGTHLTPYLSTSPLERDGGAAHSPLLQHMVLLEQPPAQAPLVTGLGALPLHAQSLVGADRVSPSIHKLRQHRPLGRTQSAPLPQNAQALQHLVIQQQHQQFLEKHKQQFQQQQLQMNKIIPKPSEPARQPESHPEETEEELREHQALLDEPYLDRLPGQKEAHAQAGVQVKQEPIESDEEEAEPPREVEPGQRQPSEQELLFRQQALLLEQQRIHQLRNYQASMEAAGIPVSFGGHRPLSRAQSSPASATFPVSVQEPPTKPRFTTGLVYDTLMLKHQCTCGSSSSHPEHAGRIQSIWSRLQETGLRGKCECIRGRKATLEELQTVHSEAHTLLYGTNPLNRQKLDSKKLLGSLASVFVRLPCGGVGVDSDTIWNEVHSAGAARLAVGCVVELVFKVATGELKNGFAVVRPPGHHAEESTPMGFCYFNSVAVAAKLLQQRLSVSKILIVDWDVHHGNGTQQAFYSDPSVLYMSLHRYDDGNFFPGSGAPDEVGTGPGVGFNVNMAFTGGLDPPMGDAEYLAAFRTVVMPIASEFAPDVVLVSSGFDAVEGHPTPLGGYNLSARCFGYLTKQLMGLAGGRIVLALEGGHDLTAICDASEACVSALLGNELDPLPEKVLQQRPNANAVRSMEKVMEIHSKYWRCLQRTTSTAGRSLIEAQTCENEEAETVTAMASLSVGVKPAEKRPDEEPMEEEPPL
Histone deacetylase 1, sequence (Q13547 whole entry): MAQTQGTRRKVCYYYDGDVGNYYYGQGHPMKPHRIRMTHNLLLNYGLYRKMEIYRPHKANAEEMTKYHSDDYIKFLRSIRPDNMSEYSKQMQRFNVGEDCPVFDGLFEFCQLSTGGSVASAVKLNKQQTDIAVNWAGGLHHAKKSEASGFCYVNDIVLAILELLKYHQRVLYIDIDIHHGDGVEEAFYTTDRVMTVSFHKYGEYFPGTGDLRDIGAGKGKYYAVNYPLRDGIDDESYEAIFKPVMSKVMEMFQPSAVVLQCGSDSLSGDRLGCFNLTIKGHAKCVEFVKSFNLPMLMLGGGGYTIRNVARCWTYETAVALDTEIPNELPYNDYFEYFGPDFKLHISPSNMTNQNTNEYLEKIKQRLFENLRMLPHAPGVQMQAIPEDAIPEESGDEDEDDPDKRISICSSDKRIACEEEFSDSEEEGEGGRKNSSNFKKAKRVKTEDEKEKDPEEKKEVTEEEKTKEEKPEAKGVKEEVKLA
Histone deacetylase 3, sequence (O15379 whole entry): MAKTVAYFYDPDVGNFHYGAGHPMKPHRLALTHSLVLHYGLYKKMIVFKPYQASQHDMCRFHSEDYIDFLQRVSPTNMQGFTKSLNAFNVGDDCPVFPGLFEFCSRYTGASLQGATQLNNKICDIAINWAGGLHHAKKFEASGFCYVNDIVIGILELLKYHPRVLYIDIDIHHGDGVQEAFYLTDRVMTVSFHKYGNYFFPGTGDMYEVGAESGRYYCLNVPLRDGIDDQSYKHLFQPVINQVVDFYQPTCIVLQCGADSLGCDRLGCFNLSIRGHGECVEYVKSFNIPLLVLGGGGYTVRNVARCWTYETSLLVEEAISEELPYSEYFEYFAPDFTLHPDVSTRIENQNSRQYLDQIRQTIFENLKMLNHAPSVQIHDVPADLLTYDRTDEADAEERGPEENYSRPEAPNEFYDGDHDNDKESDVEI

Take `CC1(C)CC(=O)Nc2ccc(C(=O)NC[C@H]3CC[C@H](CCC(=O)NO)CC3)cc21`: the IC50 amounted to 35 nM on Histone deacetylase 1; 35 nM at Histone deacetylase 2; 89 nM on Histone deacetylase 3; 28 nM on Histone deacetylase 8; 220 nM against Histone deacetylase 4; 57 nM against Histone deacetylase 9. The same compound registered an IC50 in assay [1] of 440 nM. Besides, the inhibition in assay [2] was found to be 99%; in assay [3], 43%.
Take `O=C(CCCCCCC(=O)Nc1ccc2c(c1)CCC(=O)N2)NO`: the IC50 turned out to be 14 nM against Histone deacetylase 1; 18 nM on Histone deacetylase 2; 91 nM against Histone deacetylase 3; 94 nM at Histone deacetylase 8; 120 nM against Histone deacetylase 4; 25 nM on Histone deacetylase 9. In addition, inhibition in assay [1] was half-maximal at 630 nM (IC50). Besides, the inhibition in assay [2] amounted to 98%; in assay [3], 51%.
With `CC1(C)CC(=O)Nc2ccc(C(=O)NC[C@H]3CC[C@@H](CCC(=O)NO)CC3)cc21`, the IC50 at Histone deacetylase 1 is 41 nM; at Histone deacetylase 2, 25 nM; against Histone deacetylase 3, 87 nM; against Histone deacetylase 8, 24 nM; against Histone deacetylase 4, 330 nM; against Histone deacetylase 9 it was 50 nM. Moreover, the half-inhibitory concentration (IC50) in assay [1] was 530 nM. Also, the inhibition was determined as 97% in assay [2] and 27% in assay [3].
In the case of `CC1(C)CC(=O)Nc2ccc(C(=O)NC[C@H]3CC[C@@H](/C=C/C(=O)NO)CC3)cc21`, the IC50 at Histone deacetylase 1 turned out to be 190 nM; at Histone deacetylase 2, 310 nM; on Histone deacetylase 3, 370 nM; against Histone deacetylase 8, 21 nM; at Histone deacetylase 4, 750 nM; against Histone deacetylase 9, 91 nM. Also, the IC50 in assay [1] was determined as 720 nM. In addition, the inhibition in assay [2] was 92%; in [3] it was 22%.
On to `CC1(C)CC(=O)Nc2ccc(C(=O)NCc3ccc(/C=C/C(=O)NO)cc3)cc21`, for which the half-inhibitory concentration (IC50) on Histone deacetylase 1 was 66 nM; against Histone deacetylase 2 it was 22 nM; on Histone deacetylase 3, 65 nM; against Histone deacetylase 8 it was 49 nM; against Histone deacetylase 4 it was 380 nM; against Histone deacetylase 9, 37 nM. The compound also had an IC50 in assay [1] of 110 nM. Also, the inhibition in assay [2] came out at 98%; in assay [3] it was 46%.
In the case of `CC1(C)CC(=O)Nc2ccc(C(=O)NCc3cccc(/C=C/C(=O)NO)c3)cc21`, the IC50 at Histone deacetylase 1 was 670 nM; against Histone deacetylase 2 it was 100 nM; on Histone deacetylase 3, 210 nM; at Histone deacetylase 8, 200 nM; at Histone deacetylase 4, 2000 nM; at Histone deacetylase 9, 570 nM. Further, the IC50 in assay [1] amounted to 290 nM. For the same compound, the inhibition amounted to 95% in assay [2] and 22% in assay [3].
Consider `CC1(C)CC(=O)Nc2ccc(C(=O)NCCCCCCC(=O)NO)cc21`, for which the IC50 on Histone deacetylase 1 is 30 nM; at Histone deacetylase 2, 93 nM; against Histone deacetylase 3, 69 nM; at Histone deacetylase 8, 55 nM; against Histone deacetylase 4 it was 63 nM; against Histone deacetylase 9, 39 nM. This compound gave a half-inhibitory concentration (IC50) in [1] of 92 nM. The results for the inhibition in assay [2] and in assay [3] were 98% and 44%, respectively.
With `COc1ccc2cc(C(=O)NCCCCCCC(=O)NO)ccc2n1`, the half-maximal inhibitory concentration (IC50) was 52 nM at Histone deacetylase 1; 170 nM at Histone deacetylase 2; 28 nM on Histone deacetylase 3; 80 nM against Histone deacetylase 8; 78 nM on Histone deacetylase 4; 34 nM against Histone deacetylase 9. Further, the concentration for half-maximal inhibition (IC50) in assay [1] worked out at 40 nM. The inhibition in assay [2] was determined as 100%; in assay [3] it was 70%.
As to `O=C(CCCCCCNC(=O)c1ccc2[nH]c(=O)ccc2c1)NO`, the concentration for half-maximal inhibition (IC50) on Histone deacetylase 1 came out at 24 nM; on Histone deacetylase 2 it was 25 nM; against Histone deacetylase 3, 180 nM; at Histone deacetylase 8 it was 73 nM; at Histone deacetylase 4, 280 nM; against Histone deacetylase 9 it was 46 nM. In addition, in [1], 280 nM corresponded to half-maximal inhibition (IC50). Further, the inhibition in assay [2] is 100%; in assay [3], 68%.
`O=C(CCCCCCNC(=O)c1ccc2c(c1)CCC(=O)N2)NO`: the IC50 was 24 nM against Histone deacetylase 1; 20 nM against Histone deacetylase 2; 85 nM against Histone deacetylase 3; 53 nM against Histone deacetylase 8; 120 nM against Histone deacetylase 4; 35 nM against Histone deacetylase 9. Also, the midpoint of inhibition in assay [1], the IC50, lay at 430 nM. Further, the inhibition in assay [2] was 98%; in [3] it was 45%.
For `O=C(CCCCCCC(=O)Nc1ccc2[nH]c(=O)ccc2c1)NO`, the concentration for half-maximal inhibition (IC50) against Histone deacetylase 1 was found to be 35 nM; against Histone deacetylase 2, 45 nM; against Histone deacetylase 3, 54 nM; against Histone deacetylase 8, 48 nM; at Histone deacetylase 4, 63 nM; against Histone deacetylase 9 it was 58 nM. For the same compound, the midpoint of inhibition in assay [1], the IC50, lay at 66 nM. In addition, the inhibition in assay [2] came to 99%; in [3] it was 66%.
Turning to `CC1(C)CC(=O)Nc2ccc(C(=O)NC[C@H]3CC[C@H](/C=C/C(=O)NO)CC3)cc21`, the concentration for half-maximal inhibition (IC50) against Histone deacetylase 1 stood at 3.8 nM; against Histone deacetylase 2, 8.2 nM; on Histone deacetylase 3, 15 nM; on Histone deacetylase 8 it was 6 nM; against Histone deacetylase 4 it was 58 nM; at Histone deacetylase 9, 5.2 nM. Inhibition in [1] was half-maximal at 58 nM (IC50). In addition, the results for the inhibition in assay [2] and in assay [3] were 98% and 55%, respectively.
As to `Cn1c(=O)ccc2cc(C(=O)NCCCCCCC(=O)NO)ccc21`, the half-inhibitory concentration (IC50) on Histone deacetylase 1 was determined as 89 nM; against Histone deacetylase 2, 90 nM; against Histone deacetylase 3, 98 nM; against Histone deacetylase 8, 72 nM; at Histone deacetylase 4, 86 nM; against Histone deacetylase 9, 41 nM. The same compound had a half-inhibitory concentration (IC50) in [1] of 86 nM. Moreover, the inhibition in assay [2] turned out to be 99%; in [3] it was 63%.
With `CN1C(=O)CC(C)(C)c2cc(C(=O)NCCCCCCC(=O)NO)ccc21`, the IC50 worked out at 43 nM against Histone deacetylase 1; 100 nM against Histone deacetylase 2; 28 nM against Histone deacetylase 3; 59 nM against Histone deacetylase 8; 280 nM against Histone deacetylase 4; 120 nM on Histone deacetylase 9. In assay [1], this compound gave an IC50 of 130 nM. Also, the results for the inhibition in assay [2] and in [3] were 99% and 50%, respectively.
Turning to `CC1(C)CC(=O)Nc2ccc(NC(=O)CCCCCCC(=O)NO)cc21`, the half-maximal inhibitory concentration (IC50) at Histone deacetylase 1 amounted to 9.1 nM; at Histone deacetylase 2, 10 nM; at Histone deacetylase 3, 89 nM; against Histone deacetylase 8, 33 nM; against Histone deacetylase 4, 47 nM; on Histone deacetylase 9 it was 45 nM. This compound also came in with an IC50 in [1] of 550 nM. Further, the results for the inhibition in [2] and in assay [3] were 98% and 58%, respectively.
